From patent US6399606B1, “Neuroprotective agents and methods related thereto” (Nippon Kayaku Co., Ltd., priority 1999, dated 2002)

System: rat taxol induced neuropathy model
Experiment: Rat taxol neuropathy model (sensory nerve conduction velocity)
Type: in vivo, Sprague-Dawley female rats
Settings: once daily
Method: In vivo efficacy of representative compounds were tested with rat taxol induced neuropathy model reported by Cliffer et al. (Ann. Neurol 43:46-55, 1998).
Method Sprague-Dawley female rats (215-225g) were used. One week prior to the initiation of dosing with test compounds, base line electrophysiological recording were obtained. Dosing of the test compounds was initiated one day prior to the first injection of taxol (A.G. Scientific). Beginning on Day 2 animals were injected with total of two doses of 15 mg/kg paclitaxel giving 3 days apart, for a cumulative dose of […].
On Day 1 of the study, all rat were randomized into groups of 10 each and weighed. Dosing with test compounds was initiated on Day 1 and continued for a total of 45 days. Test compounds were administered by intraperitoneal (i.p.) injection or by post orum (p.o.) gavage in conscious once daily. Paclitaxel was administered on Day 2 and 5 by tail vein injection at 6 mg/ml in 50% saline/25%Cremophore/25% ethanol. One group was given the paclitaxel vehicle alone in an equivalent volume. Test compounds were formulated for dosing daily, immediately prior to dosing. The compounds were formulated by adding 15% of the final volume of pure PEG400 to the compounds and mixed on an orbital shaker for 40 minutes. Following dissolution, saline was added and the solution was vortexed. Taxol (A.G. Scientific) is solvated with Cremophore-ethanol vehicle at 12 mg/ml and then diluted 50/50 with saline. The test compounds are solvated with saline at appropriate concentration.
Sensory and motor nerve conduction velocities were evaluated using a method based in the protocol described by De Koning and Gispen (Peptides 8:415-422, 1987). Electrophysiological evaluation was carried out as a double blind study. Animals were anesthetized with isofluorane. In order to maintain body temperature, anesthetized animals were placed on Deltaphase ™ Isothermal Pads and rectal temperatures were monitored. Stimulating needle electrodes were inserted close to the sciatic nerve at the sciatic notch and the tibial nerve near the ankle. Subcutaneous recording electrodes were placed over the distal lumbricales foot muscles. Stimuli were supramaximal square-waves of 0.1 msec duration generated with a Grass S88 Stimulator through a Grass stimulation isolation unit. An ETH-260 Bride/Bio Amplifier (CB Sciences Inc), computer (Macintosh Iici), and data acquisition system (MacLab/200) were used for the recordings. The motor and sensory nerve conduction velocities were calculated by measuring the distance between the sciatic notch and ankle sites, and the latency between the M-wave and the H-reflex. The electrophysiological evaluations were conducted 2 weeks later. Statistical analysis was carried out using unpaired t-tests and repeated measures of analysis of variance (ANOVA) using Statview. In all cases 5% was chosen as the level of statistical significance in two-tailed tests.

[1] = p.o. administration, 20 mg/kg, FIG. 2, 3

SMILES | amelioration of taxol-induced retardation of sensory nerve conduction velocity [1] | also measured
CC(=O)NCCSCC(CC(=O)N1CCCCC1)C(=O)c1cccnc1 (stereo not drawn) [compound 189] | active | amelioration of taxol-induced retardation of sensory nerve conduction velocity (i.p. administration at 2.5 mg/kg, FIG. 2): active
CC(=O)NCCSCC(CC(=O)N(C)C)C(=O)c1cccnc1 (stereo not drawn) [compound 188] | – | amelioration of taxol-induced retardation of sensory nerve conduction velocity (p.o. administration, 40 mg/kg, FIG. 2, 3): active
CC(=O)N[C@@H](CSCC(CC(=O)N(C)C)C(=O)c1cccnc1)C(=O)N1CCN(C)CC1 (stereo partly drawn) [compound 440] | active | –
COC(=O)CC(CSC[C@H](NC(C)=O)C(=O)OC)C(=O)c1cccnc1 (stereo partly drawn) [compound 60] | – | amelioration of taxol-induced retardation of sensory nerve conduction velocity (i.p. administration at 10 mg/kg, FIG. 1, 3): active
CCN(CC)CCN(C)C(=O)C(CSCC(CC(=O)N(C)C)C(=O)c1cccnc1)NC(C)=O (stereo not drawn) [compound 438] | active | –
